Source: paper PMC12369479 (Journal of Experimental Botany, 2025)
Where “and” joins values, the source holds several entries; their conditions need not be identical. Equal values may be shown once. Read-outs that look alike come from different tables or passages of the source.

Assays:
PpADK2 = PpADK2 (Physcomitrium patens, UniProt A9RF27); experiment: ADK activity, coupled reaction with PK and LDH; settings: 100 µM substrate, 10 mM ATP, pH 7.5, 30 °C
Procedure: (§1) Substrate analogs were purchased from Sigma-Aldrich (www.sigmaaldrich.com). The ADK activity was measured spectrophotometrically on an Agilent 8453 UV-Vis spectrophotometer (www.agilent.com) at 30 °C using a coupled reaction with pyruvate kinase (PK) and lactate dehydrogenase (LDH) (www.sigmaaldrich.com) ([Blondin et al., 1994]). In this assay, PK converts ADP produced by ADK and phosphoenolpyruvate (PEP) to pyruvate. Subsequently, LDH then converts pyruvate to lactate using the coenzyme NADH, with the conversion monitored at 340 nm. The reaction was conducted in 50 mM Tris–HCl buffer at pH 7.5, containing 50 mM KCl, 6 mM MgCl2, 300 µM PEP, 200 µM NADH, 10 mM ATP, 2 U of PK, and 2.5 U of LDH, using various nucleoside substrates. Kinetic constants were determined using GraphPad Prism 8.0 software (www.graphpad.com). Each measurement was performed six times using repetitive purified enzymes. The activities of all five ADKs were also measured by HPLC ([Moffatt et al., 1991]). The reaction mixture comprised 50 mM Tris–HCl pH 7.5, 5 mM MgCl2, 0.5 mM DTT, 30 mM NaF, 5 mM ATP, 40 µM substrate, and 2–150 ng of purified ADK, depending on the isoform. The reaction was incubated at 30 °C for up to 1 h. […] Similarly, the conversion of cytokinin ribosides to monophosphates was followed on a LiChrosphere 60 RP-Select B (5 µm) LiChroCART column 125-4 column equilibrated with 10 mM triethylamine at pH 5.4 plus 10% methanol, and stepwise eluted with 100% methanol.

ZmADK1 = ZmADK1 (Zea mays, UniProt K7UH13); experiment: ADK activity, coupled reaction with PK and LDH; settings: 100 µM substrate, 10 mM ATP, pH 7.5, 30 °C
Procedure: as §1

ZmADK2 [1] = target: T1, ZmADK2 (Zea mays, UniProt B4FFH8, T4S); experiment: ADK activity, coupled reaction with PK and LDH; type: biochemical; settings: ZmADK2, 10 mM ATP, pH 7.5, 30 °C; for Specific activity: 100 µM substrate
Procedure: as §1

ZmADK3 = ZmADK3 (Zea mays, UniProt A0A1D6E5Z5); experiment: ADK activity, coupled reaction with PK and LDH; type: biochemical; settings: ZmADK3; 100 µM substrate; 10 mM ATP; pH 7.5; 30 °C
Procedure: Substrate analogs were purchased from Sigma-Aldrich (www.sigmaaldrich.com). […] In this assay, PK converts ADP produced by ADK and phosphoenolpyruvate (PEP) to pyruvate. Subsequently, LDH then converts pyruvate to lactate using the coenzyme NADH, with the conversion monitored at 340 nm. The reaction was conducted in 50 mM Tris–HCl buffer at pH 7.5, containing 50 mM KCl, 6 mM MgCl2, 300 µM PEP, 200 µM NADH, 10 mM ATP, 2 U of PK, and 2.5 U of LDH, using various nucleoside substrates. Kinetic constants were determined using GraphPad Prism 8.0 software (www.graphpad.com). Each measurement was performed six times using repetitive purified enzymes. […] The reaction mixture comprised 50 mM Tris–HCl pH 7.5, 5 mM MgCl2, 0.5 mM DTT, 30 mM NaF, 5 mM ATP, 40 µM substrate, and 2–150 ng of purified ADK, depending on the isoform. The reaction was incubated at 30 °C for up to 1 h.

PpADK1 [2] = target: T2, PpADK1 (Physcomitrium patens, UniProt O49923); experiment: ADK activity, coupled reaction with PK and LDH; type: biochemical, Physcomitrella patens; settings: 100 µM substrate, 10 mM ATP, pH 7.5, 30 °C
T2 construct: made in house; host or cells: E. coli T7 Express Iq
Procedure: as §1

ZmADK2 [3] = target: T1, ZmADK2; experiment: Binding affinity by microscale thermophoresis (MST); settings: for Kd: MST; for weaker affinity compared with Ado: ratio of KD values
Procedure: (§2) The microscale thermophoresis (MST) method was used to determine the binding affinity of various ribosides for ZmADK2 and PpADK1. Proteins were fluorescently labeled with RED-tris-NTA dye (www.nanotemper-technologies.com) using a 1:1 dye/protein molar ratio. The labeled protein was adjusted to 100–300 nM in 50 mM HEPES buffer pH 7.5, 1 mM MgCl2, and 0.2% Tween. Measurements were performed in premium capillaries on a Monolith NT.115 instrument at 30 °C with 5 s/30 s/5 s laser off/on/off times, respectively, with continuous sample fluorescence recording. Thermal stability was measured by nano-differential scanning fluorimetry on a Prometheus NT.48 instrument (www.nanotemper-technologies.com) in various buffers covering a pH (7.0–9.5) and temperature range (25–95 °C), with a heating rate of 1 °C min^–1, and using NT melting control software. Protein unfolding was measured by detecting the temperature-induced change in tryptophan fluorescence intensity at emission wavelengths of 330±5 nm and 350±5 nm. The melting temperature (Tm) was deduced from the maximum of the first derivative of the fluorescence ratios F350/F330.

rabbit ADK = test system: rabbit ADK; design: method as in Miller et al., 1979a; settings: ref Miller et al., 1979a; cited from earlier work
PpADK1 [4] = target: T2, PpADK1; experiment: Binding affinity by microscale thermophoresis (MST); design: species or system Physcomitrella patens
Procedure: as §2

[5] = 50 mM HEPES pH 7.5, 1 mM MgCl2, first or only binding event, read-out: KD
[6] = KD, 50 mM HEPES pH 7.5, 1 mM MgCl2, first or only binding event
[7] = second binding event (ATP site), read-out: second (higher) KD value

T1 sequence (B4FFH8 1-342 T4S): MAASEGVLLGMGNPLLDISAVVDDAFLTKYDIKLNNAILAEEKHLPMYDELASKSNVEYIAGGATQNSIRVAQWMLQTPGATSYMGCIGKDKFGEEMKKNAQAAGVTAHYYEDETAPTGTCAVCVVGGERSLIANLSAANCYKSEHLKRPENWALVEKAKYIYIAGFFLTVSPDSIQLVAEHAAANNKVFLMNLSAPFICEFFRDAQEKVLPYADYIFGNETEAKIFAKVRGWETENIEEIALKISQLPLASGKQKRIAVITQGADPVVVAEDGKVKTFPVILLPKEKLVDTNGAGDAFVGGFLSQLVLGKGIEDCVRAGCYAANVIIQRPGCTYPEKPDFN
T2 sequence (O49923 whole entry): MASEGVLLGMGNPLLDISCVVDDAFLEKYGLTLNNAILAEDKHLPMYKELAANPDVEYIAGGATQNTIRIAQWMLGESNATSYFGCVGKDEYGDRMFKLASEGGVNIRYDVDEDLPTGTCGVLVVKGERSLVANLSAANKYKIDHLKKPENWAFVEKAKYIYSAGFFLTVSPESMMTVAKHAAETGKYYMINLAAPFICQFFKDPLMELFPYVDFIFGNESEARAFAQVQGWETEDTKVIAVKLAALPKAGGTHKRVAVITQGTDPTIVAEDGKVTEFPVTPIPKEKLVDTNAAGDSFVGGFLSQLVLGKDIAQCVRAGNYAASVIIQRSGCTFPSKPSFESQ
Sequence of ZmADK3 (A0A1D6E5Z5 entry or part of it): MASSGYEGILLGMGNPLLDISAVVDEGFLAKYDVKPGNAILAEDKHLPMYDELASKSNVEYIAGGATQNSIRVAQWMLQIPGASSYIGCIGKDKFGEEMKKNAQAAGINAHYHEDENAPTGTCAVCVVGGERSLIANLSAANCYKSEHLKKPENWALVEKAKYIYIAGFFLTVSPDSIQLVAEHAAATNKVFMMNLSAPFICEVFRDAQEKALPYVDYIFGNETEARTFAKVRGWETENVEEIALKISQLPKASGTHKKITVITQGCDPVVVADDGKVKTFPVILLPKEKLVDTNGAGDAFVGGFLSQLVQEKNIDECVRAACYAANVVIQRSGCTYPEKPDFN
Sequence of PpADK2 (A9RF27 entry or part of it): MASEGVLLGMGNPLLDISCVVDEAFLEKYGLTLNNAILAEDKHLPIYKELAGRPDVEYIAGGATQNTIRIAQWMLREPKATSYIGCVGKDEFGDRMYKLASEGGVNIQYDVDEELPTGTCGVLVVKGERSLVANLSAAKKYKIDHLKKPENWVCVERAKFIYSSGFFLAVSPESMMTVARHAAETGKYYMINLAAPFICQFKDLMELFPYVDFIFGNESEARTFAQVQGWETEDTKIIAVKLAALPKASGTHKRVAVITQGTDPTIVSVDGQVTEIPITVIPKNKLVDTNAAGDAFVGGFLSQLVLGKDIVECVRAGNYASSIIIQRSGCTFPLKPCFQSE
Sequence of ZmADK1 (K7UH13 entry or part of it): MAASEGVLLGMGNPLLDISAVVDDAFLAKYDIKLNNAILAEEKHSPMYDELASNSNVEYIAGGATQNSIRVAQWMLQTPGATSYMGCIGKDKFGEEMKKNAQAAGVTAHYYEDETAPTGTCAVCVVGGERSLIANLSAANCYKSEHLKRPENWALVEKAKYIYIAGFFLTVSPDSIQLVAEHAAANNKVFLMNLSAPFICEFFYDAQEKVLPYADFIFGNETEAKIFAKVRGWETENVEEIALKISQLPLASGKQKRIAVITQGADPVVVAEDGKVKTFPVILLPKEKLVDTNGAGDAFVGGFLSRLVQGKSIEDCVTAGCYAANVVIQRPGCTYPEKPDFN

Work on `C/C(=C\CNc1ncnc2c1ncn2[C@@H]1O[C@H](CO)[C@@H](O)[C@H]1O)CO` (relative stereo) [tZR, trans-zeatin riboside] yielded a Specific activity (PpADK2) of 0.83±0.08 nmol s^–1 mg^–1, a Specific activity (ZmADK1) of 2.7±0.3 nmol s^–1 mg^–1 and a Specific activity (ZmADK2 [1]) of 3.8±0.4 nmol s^–1 mg^–1. It also gave a Specific activity (ZmADK3) of 2.7±0.4 nmol s^–1 mg^–1 and a Specific activity (PpADK1 [2]) of 0.74±0.06 nmol s^–1 mg^–1.

Molecule `Nc1ncnc2c1ncn2C1CC(O)C(CO)O1` (stereo not shown) [2′-DeoxyAdo] has a Km (ZmADK2 [1]) of 506 ± 39 µM, a kcat (ZmADK2 [1]) of 0.46±0.02 s^–1 and a Km (ZmADK2 [1]; listed as 2′-deoxyAdo) of roughly 500 µM. The Kd (ZmADK2 [3]; 50 mM HEPES pH 7.5, 1 mM MgCl2, first or only binding event, listed as 2′-deoxyAdo, read-out: KD) was roughly 500 µM, the Kd (ZmADK2 [3]; [5]) was 505 ± 94 µM and the “weaker affinity compared with Ado” value (ZmADK2 [3]) was ~ 1200 fold. The Km (rabbit ADK) was 575 µM.

For `Nc1ncnc2c1ncn2[C@@H]1O[C@H](CO)C[C@H]1O` [3′-DeoxyAdo, cordycepin], the Kd (ZmADK2 [3]; [6]) is listed as 175 ± 9 µM and the Km (rabbit ADK) is listed as 254 µM.

Molecule `Nc1ncnc2c1ccn2[C@@H]1O[C@H](CO)[C@@H](O)[C@H]1O` [7-DeazaAdo, tubercidin] has a Km (ZmADK2 [1]) of 3.4 ± 0.4 µM, a kcat (ZmADK2 [1]) of 0.17±0.01 s^–1 and a Kd (ZmADK2 [3]; [6]) of 2.2 ± 0.7 µM. The “weaker affinity compared with Ado” value (ZmADK2 [3]) was ~ 5.5 fold.

`Nc1ncnc2c1ncn2[C@@H]1O[C@H](COP(=O)(O)OP(=O)(O)O)[C@@H](O)[C@H]1O` [ADP] gave a Kd (ZmADK2 [3]; 50 mM HEPES pH 7.5, 1 mM MgCl2, read-out: KD) of 10300 ± 1200 µM.

In the case of `Nc1ncnc2c1ncn2C1OC(COP(=O)(O)O)C(O)C1O` (stereo not shown) [AMP], the Kd (ZmADK2 [3]; [6]) is reported as 247 ± 71 µM, the Kd (ZmADK2 [3]; second KD value, KD(2), second binding event (ATP site)) is reported as ~8000 µM and 8300 µM and the Kd (ZmADK2 [3]; second KD value, second binding event (ATP site)) is reported as 8300 ± 2070 µM. It also gave a Kd (PpADK1 [4]; [5]) of 121 µM and a Kd (PpADK1 [4]; [7]) of 8300 µM.

`Nc1ncnc2c1ncn2[C@@H]1O[C@H](COP(=O)(O)OP(=O)(O)OP(=O)(O)OP(=O)(O)OP(=O)(O)OC[C@H]2O[C@@H](n3cnc4c(N)ncnc43)[C@H](O)[C@@H]2O)[C@@H](O)[C@H]1O` [AP5A, diadenosine pentaphosphate] showed a Kd (ZmADK2 [3]; [5]) of 14.5 ± 9.2 µM, a Kd (ZmADK2 [3]; second binding event (ATP site), read-out: second KD value) of 949 ± 46 µM and a Kd (PpADK1 [4]; [5]) of 8.1 ± 1.1 µM. For the same molecule, the Kd (PpADK1 [4]; [7]) was 630 ± 120 µM.

`Nc1ncnc2c1ncn2[C@@H]1O[C@H](CO)[C@@H](O)[C@@H]1O` [AraA, Adenine arabinoside] showed a Kd (ZmADK2 [3]; [6]) greater than 500 µM.

Work on `OC[C@H]1O[C@@H](n2cnc3c(NCc4ccccc4)ncnc32)[C@H](O)[C@@H]1O` [BAPR, 6-benzylaminopurine riboside] yielded a Specific activity (PpADK2) of 0.89±0.07 nmol s^–1 mg^–1, a Specific activity (ZmADK1) of 3.3±0.2 nmol s^–1 mg^–1 and a Specific activity (ZmADK2 [1]) of 5.1±0.6 nmol s^–1 mg^–1. The Specific activity (ZmADK3) was 5.3±0.4 nmol s^–1 mg^–1, the Specific activity (PpADK1 [2]) was 0.84±0.04 nmol s^–1 mg^–1 and the Km (rabbit ADK) was 12 µM. For the same molecule, the “activity compared with Ado” value (rabbit ADK) was 29%.

In the case of `Nc1ccn([C@@H]2O[C@H](CO)[C@@H](O)[C@H]2O)c(=O)n1` [Cytidine], the Kd (ZmADK2 [3]; [6]) is reported as 286 ± 10 µM.
